Data reported in patent US9695155B2, “Herbicidal substituted pyrimidinyloxy benzene compounds” (E. I. DU PONT DE NEMOURS AND COMPANY, priority 2013, dated 2017).

What was measured:
giant foxtail [1] = test: Test A preemergence; format: in vivo, Setaria faberii
Method in brief: (§1)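 Scoring: eye-based comparison with untreated controls, 0 for no effect through 100 for complete control, at about day 10. Treatments: directed soil spray preemergence; foliar spray postemergence on 2–10 cm plants at the one- to two-leaf stage. Medium: loam soil with sand.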

large (Lg) crabgrass [2] = test: Test A postemergence; format: in vivo, Digitaria sanguinalis; conditions: 0 to 100 scale where 0 is no effect and 100 is complete control
Method in brief: as §1

galium = test: Test C preemergence; format: in vivo, Galium aparine; conditions: for Galium plant response rating: preemergence
Method in brief: (§2)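 Whole-plant greenhouse test with surfactant-containing solvent formulation, applied preemergence to sown loam–sand pots or postemergence to 2–18 cm plants. Scored by eye 13 to 15 days on, 0–100 scale.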

large (Lg) crabgrass [3] = test: Test C preemergence; format: in vivo, Digitaria sanguinalis; conditions: for Crabgrass, Large plant response rating: preemergence
Method in brief: as §2

giant foxtail [4] = test: Test C preemergence; format: in vivo, Setaria faberii; conditions: for Foxtail, Giant plant response rating: preemergence
Method in brief: as §2

johnsongrass [5] = test: Test C preemergence; format: in vivo, Sorghum halepense; conditions: for Johnsongrass plant response rating: preemergence
Method in brief: as §2

lambsquarters = test: Test C preemergence; format: in vivo, Chenopodium album; conditions: for Lambsquarters plant response rating: preemergence
Method in brief: as §2

yellow nutsedge [6] = test: Test C preemergence; format: in vivo, Cyperus esculentus; conditions: for Nutsedge, Yellow plant response rating: preemergence
Method in brief: as §2

giant foxtail [7] = test: Test C postemergence; format: in vivo, Setaria faberii; conditions: for Plant response rating, Foxtail, Giant: Postemergence
Method in brief: as §2

johnsongrass [8] = test: Test C postemergence; format: in vivo, Sorghum halepense; conditions: for Plant response rating, Johnsongrass: Postemergence
Method in brief: as §2

yellow nutsedge [9] = test: Test C postemergence; format: in vivo, Cyperus esculentus; conditions: for Plant response rating, Nutsedge, Yellow: Postemergence, scale 0 to 100 (0 no effect, 100 complete control)
Method in brief: as §2

soybean = test: Test C postemergence; format: in vivo, Glycine max; conditions: for Plant response rating, Soybean: Postemergence, scale 0 to 100 (0 no effect, 100 complete control)
Method in brief: as §2

waterhemp = test: Test C postemergence; format: in vivo, Amaranthus rudis; conditions: for Plant response rating, Waterhemp: Postemergence, scale 0 to 100 (0 no effect, 100 complete control)
Method in brief: as §2

chickweed = test: Test C postemergence; format: in vivo, Stellaria media; conditions: for Plant response rating, Chickweed: Postemergence
Method in brief: as §2

[10] = 16 g ai/ha, scale 0 to 100 (0 no effect, 100 complete control)
[11] = 62 g ai/ha, scale 0 (no effect) to 100 (complete control)
[12] = 125 g ai/ha, scale 0 (no effect) to 100 (complete control)
[13] = Preemergence, 31 g ai/ha, scale 0 to 100, 0 no effect, 100 complete control
[14] = 16 g ai/ha, postemergence, visual rating, scale 0 to 100 (0 no effect, 100 complete control), 13 to 15 days
[15] = 31 g ai/ha, scale 0 to 100 (0 no effect, 100 complete control), 13 to 15 days
[16] = 62 g ai/ha, scale 0 to 100 (0 no effect, 100 complete control)

CCOc1cnn(-c2c(C#N)cccc2Oc2ncc(Cl)cn2)c1 [Compound 92]
Plant response rating, Foxtail, Giant (giant foxtail [1]; 125 g ai/ha, 0 to 100 scale where 0 is no effect and 100 is complete control): 100 | Foxtail, Giant plant response rating (giant foxtail [1]; 500 g ai/ha, 0 to 100 scale, 0 no effect, 100 complete control, approx. 10 days): 100 | Plant response rating, Crabgrass, Large (large (Lg) crabgrass [2]; 125 g ai/ha): 80 | Plant response rating, Crabgrass, Large (large (Lg) crabgrass [2]; 500 g ai/ha): 90 | Galium plant response rating (galium; [10]): 80 | Galium plant response rating (galium; [11]): 95 | Galium plant response rating (galium; [12]): 98 | Plant response rating, Galium (galium; [13]): 85 | Crabgrass, Large plant response rating (large (Lg) crabgrass [3]; [10]): 90 | Crabgrass, Large plant response rating (large (Lg) crabgrass [3]; [11]): 100 | Crabgrass, Large plant response rating (large (Lg) crabgrass [3]; [12]): 100 | Plant response rating, Crabgrass, Large (large (Lg) crabgrass [3]; [13]): 100 | Foxtail, Giant plant response rating (giant foxtail [4]; [10]): 30 | Foxtail, Giant plant response rating (giant foxtail [4]; [11]): 100 | Foxtail, Giant plant response rating (giant foxtail [4]; [12]): 100 | Plant response rating, Foxtail, Giant (giant foxtail [4]; [13]): 98 | Johnsongrass plant response rating (johnsongrass [5]; [10]): 0 | Johnsongrass plant response rating (johnsongrass [5]; [11]): 70 | Johnsongrass plant response rating (johnsongrass [5]; [12]): 85 | Plant response rating, Johnsongrass (johnsongrass [5]; [13]): 5 | Lambsquarters plant response rating (lambsquarters; [10]): 65 | Lambsquarters plant response rating (lambsquarters; [11]): 100 | Lambsquarters plant response rating (lambsquarters; [12]): 98 | Plant response rating, Lambsquarters (lambsquarters; [13]): 98 | Nutsedge, Yellow plant response rating (yellow nutsedge [6]; [10]): 5 | Nutsedge, Yellow plant response rating (yellow nutsedge [6]; [11]): 50 | Nutsedge, Yellow plant response rating (yellow nutsedge [6]; [12]): 75 | Plant response rating, Nutsedge, Yellow (yellow nutsedge [6]; [13]): 5 | Foxtail, Giant plant response rating (giant foxtail [7]; [14]): 5 | Plant response rating (0 to 100), Foxtail, Giant (giant foxtail [7]; 125 g ai/ha, postemergence): 10 | Plant response rating, Foxtail, Giant (giant foxtail [7]; [15]): 5 | Plant response rating, Foxtail, Giant (giant foxtail [7]; [16]): 5 | Johnsongrass plant response rating (johnsongrass [8]; [14]): 0 | Plant response rating (0 to 100), Johnsongrass (johnsongrass [8]; 125 g ai/ha, postemergence): 5 | Plant response rating, Johnsongrass (johnsongrass [8]; [15]): 0 | Plant response rating, Johnsongrass (johnsongrass [8]; [16]): 5 | Plant response rating (0 to 100), Nutsedge, Yellow (yellow nutsedge [9]; 125 g ai/ha, postemergence): 5 | Plant response rating, Nutsedge, Yellow (yellow nutsedge [9]; 31 g ai/ha, 13 to 15 days): 5 | Plant response rating, Nutsedge, Yellow (yellow nutsedge [9]; 62 g ai/ha): 5 | Plant response rating (0 to 100), Soybean (soybean; 125 g ai/ha, postemergence): 95 | Plant response rating, Soybean (soybean; 31 g ai/ha, 13 to 15 days): 70 | Plant response rating, Soybean (soybean; 62 g ai/ha): 90 | Plant response rating (0 to 100), Waterhemp (waterhemp; 125 g ai/ha, postemergence): 80 | Plant response rating, Waterhemp (waterhemp; 31 g ai/ha, 13 to 15 days): 45 | Plant response rating, Waterhemp (waterhemp; 62 g ai/ha): 75 | Chickweed plant response rating (chickweed; [14]): 50 | Plant response rating (0 to 100), Chickweed (chickweed; 125 g ai/ha, postemergence): 70 | Plant response rating, Chickweed (chickweed; [15]): 60 | Plant response rating, Chickweed (chickweed; [16]): 60
